This experiment has as its target T1, hYAK3 (Homo sapiens, UniProt O43781).
T1 construct: GST (N); His6 (C); made in house; host or cells: baculovirus expression system in Sf9 cells
T1 sequence (O43781 142-526): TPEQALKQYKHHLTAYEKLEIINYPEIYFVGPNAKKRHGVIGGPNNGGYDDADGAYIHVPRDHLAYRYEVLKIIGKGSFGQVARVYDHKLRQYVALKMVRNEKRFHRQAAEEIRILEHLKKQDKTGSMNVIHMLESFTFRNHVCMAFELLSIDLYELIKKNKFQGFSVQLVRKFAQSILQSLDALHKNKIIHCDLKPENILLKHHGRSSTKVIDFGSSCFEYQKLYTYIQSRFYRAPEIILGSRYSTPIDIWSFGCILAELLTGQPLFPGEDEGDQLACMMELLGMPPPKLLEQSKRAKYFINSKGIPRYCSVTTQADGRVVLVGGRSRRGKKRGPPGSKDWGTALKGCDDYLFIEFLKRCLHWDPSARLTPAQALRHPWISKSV
The experiment in a line: YAK3 Scintillation Proximity Assay using Ser164 of myelin basic protein as the phosphoacceptor (kinase assay of purified hYAK3). The class given is biochemical. Particulars: purified GST-hYak3-His6; 1 μM ATP; 4 μM Ser164 peptide; 2 hours at room temperature. The protocol:
Substrate phosphorylation assays were carried out as follows:
YAK3 Scintillation Proximity Assays Using Ser164 of Myelin Basic Protein as the Phosphoacceptor
The source of Ser164 substrate peptide The biotinylated Ser164, S164A peptide(LGGRDSRAGS*PMARRKK-ahx-Biotin-Amide), sequence derived from the C-terminus of bovine myelin basic protein (MBP) with Ser162 substituted as Ala 162, was purchased from California Peptide Research Inc. (Napa, Calif.), and its purity was determined by HPLC. Phosphorylation occurs at position 164 (marked S* above). The calculated molecular mass of the peptide is 2166 dalton. Solid sample was dissolved at 10 mM in DMSO, aliquoted, and stored at −20 C until use. […]
Kinase assay of purified hYAK3: Assays were performed in 96 well (Costar, Catalog No.3789) or 384 well plates (Costar, Catalog No.3705). […] Compounds, titrated in DMSO, were evaluated at concentrations ranging from 50 μM to 0.2 nM. […]
The data for compound dose responses were plotted as % Inhibition, calculated with the data reduction formula 100*(1-[(U1-C2)/(C1-C2)]), versus concentration of compound, where U is the unknown value, C1 is the average control value obtained for DMSO, and C2 is the average control value obtained for 0.05M EDTA. […] The results for each compound were recorded as pIC50 calculated as follows: pIC50=−Log 10(K).

pIC50: −log10 of the molar value.

One may read the pIC50 as −log10 of the IC50, conventionally taken in molar units. A low value points to a large IC50.

The compound `O=C1N=C(Nc2c(Cl)cccc2Cl)S/C1=C\c1ccc2ncc(N3CCOCC3)nc2c1` [Example 1, (5Z)-2-[(2,6-Dichlorophenyl)amino]-5-{[3-(4-morpholinyl)-6-quinoxalinyl]methylidene}-1,3-thiazol-4(5H)-one] showed a negative logarithm of the IC50 (pIC50) of 8.90.

For the origin of these results see patent publication US20080214455A1, “Novel Chemical Compounds” (SMITHKLINE BEECHAM CORPORATION, priority 2005, published 2008).
